Measured values taken from PMC10247784, “Physiological activation of human and mouse bitter taste receptors by bile acids” (Communications Biology, 2023).
Values joined by “and” are separate entries in the source; they are usually repeats but may differ in a detail not shown here. Identical values can stand only once.

Molecular target: T1, human TAS2R1 (Homo sapiens, UniProt Q9NYW7)
T1 construct: expressed in transfected cells; host or cells: HEK293T-Gα16gust44
T1 sequence (Q9NYW7 1-299): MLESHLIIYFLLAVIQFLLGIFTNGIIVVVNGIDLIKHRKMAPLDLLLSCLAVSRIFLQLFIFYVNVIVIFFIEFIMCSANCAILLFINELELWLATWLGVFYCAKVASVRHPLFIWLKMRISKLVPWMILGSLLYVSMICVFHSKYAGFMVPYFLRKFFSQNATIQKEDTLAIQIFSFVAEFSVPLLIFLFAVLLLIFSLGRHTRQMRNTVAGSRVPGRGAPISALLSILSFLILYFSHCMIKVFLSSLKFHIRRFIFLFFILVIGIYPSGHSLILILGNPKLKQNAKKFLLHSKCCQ
Assay: Calcium imaging assay (FLIPR), HEK293T-Gα16gust44 cells transfected with human TAS2R1
Type: cell-based
Outline: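 Calcium responses via FLIPR in receptor-transfected HEK293T-Gα16gust44 cells (Fluo-4-AM, 2.5 mM probenecid), after mock-signal subtraction and normalization to baseline and buffer (ΔF/F). Threshold concentration is the lowest dose differing from mock cells at p < 0.01 (Student's t-test), from three biological replicates in duplicate.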

- Efficacy = maximal amplitude (ΔF/F) (TAS2R1, bile acids, mean): 0.1101
- Efficacy (maximal amplitude ΔF/F), individual data points (TAS2R1, bile acids, single replicates, listed as DCA): 0.109 and 0.1181 and 0.1032
- RLU (Time 0 s (second time grid)): 0 RLU
- RLU (Time 2 s): 0.493 RLU
- RLU (Time 4 s): 31.4027 RLU
- RLU (Time 6 s): 3.521 RLU
- RLU (Time 8 s): -1.537 RLU
- RLU (Time 12 s): 14.8432 RLU
- RLU (Time 14 s): 0.09676 RLU
- RLU (Time 16 s): 17.8407 RLU
- RLU (Time 18 s): -2.035 RLU
- RLU (Time 18.781 s): -64.4563 RLU
- RLU (Time 20.781 s): -74.4446 RLU
- RLU (Time 22.781 s): -47.6337 RLU
- RLU (Time 24.781 s): -3.248 RLU
- RLU (Time 26.781 s): 25.7142 RLU
- RLU (Time 28.781 s): 115.435 RLU
- RLU (Time 30.781 s): 160.244 RLU
- RLU (Time 32.781 s): 224.68 RLU
- RLU (Time 34.781 s): 265.794 RLU
- RLU (Time 36.781 s): 285.115 RLU
- RLU (Time 38.781 s): 296.049 RLU
- RLU (Time 40.781 s): 331.471 RLU
- RLU (Time 42.781 s): 355.405 RLU
- RLU (Time 44.781 s): 351.369 RLU
- RLU (Time 46.781 s): 370.806 RLU
- RLU (Time 48.781 s): 359.225 RLU
- RLU (Time 50.781 s): 385.526 RLU
- RLU (Time 52.781 s): 383.683 RLU
- RLU (Time 54.781 s): 370.149 RLU
- RLU (Time 56.781 s): 369.818 RLU
- RLU (Time 58.781 s): 385.269 RLU
- RLU (Time 60.781 s): 378.237 RLU
- RLU (Time 62.781 s): 433.32 RLU
- RLU (Time 64.781 s): 415.898 RLU
- RLU (Time 66.781 s): 407.815 RLU
- RLU (Time 68.781 s): 409.61 RLU
- RLU (Time 70.781 s): 404.287 RLU
- RLU (Time 72.781 s): 403.47 RLU
- RLU (Time 74.781 s): 421.511 RLU
- RLU (Time 76.781 s): 407.874 RLU
- RLU (Time 78.781 s): 402.577 RLU
- RLU (Time 80.781 s): 400.686 RLU
- RLU (Time 82.781 s): 411.74 RLU
- RLU (Time 84.781 s): 413.712 RLU
- RLU (Time 86.781 s): 386.975 RLU
- RLU (Time 88.781 s): 406.471 RLU
- RLU (Time 90.781 s): 396.647 RLU
- RLU (Time 92.781 s): 377.402 RLU
- RLU (Time 94.781 s): 398.73 RLU
- RLU (Time 96.781 s): 400.692 RLU
- RLU (Time 98.781 s): 408.833 RLU
- RLU (Time 100.781 s): 412.535 RLU
- RLU (Time 102.781 s): 404.992 RLU
- RLU (Time 104.781 s): 431.288 RLU
- RLU (Time 106.781 s): 394.532 RLU
- RLU (Time 108.781 s): 409.236 RLU
- RLU (Time 110.781 s): 378.853 RLU
- RLU (Time 112.781 s): 368.351 RLU
- RLU (Time 114.781 s): 393.07 RLU
- RLU (Time 116.781 s): 389.914 RLU
- RLU (Time 118.781 s): 397.129 RLU
- RLU (Time 120.781 s): 358.058 RLU
- RLU (Time 122.781 s): 360.498 RLU
- RLU (Time 124.781 s): 357.848 RLU
- RLU (Time 126.781 s): 357.113 RLU
- RLU (Time 128.781 s): 380.58 RLU
- RLU (Time 130.781 s): 362.729 RLU
- RLU (Time 132.781 s): 375.09 RLU
- RLU (Time 134.781 s): 362.515 RLU
- RLU (Time 136.781 s): 330.764 RLU
- RLU (Time 137.547 s): 319.55 RLU
- RLU (Time 143.547 s): 341.925 RLU
- RLU (Time 149.547 s): 313.832 RLU
- RLU (Time 155.547 s): 317.65 RLU
- RLU (Time 161.547 s): 302.763 RLU
- RLU (Time 167.547 s): 279.035 RLU
- RLU (Time 173.547 s): 260.648 RLU
- RLU (Time 179.547 s): 266.358 RLU
- RLU (Time 185.547 s): 253.1 RLU
- RLU (Time 191.547 s): 247.046 RLU
- RLU (Time 197.547 s): 220.468 RLU
- RLU (Time 203.547 s): 236.267 RLU
- RLU (Time 209.547 s): 247.998 RLU
- RLU (Time 215.547 s): 197.659 RLU
- RLU (Time 221.547 s): 234.297 RLU
- RLU (Time 227.547 s): 187.946 RLU
- RLU (Time 233.547 s): 202.574 RLU
- RLU (Time 239.547 s): 164.983 RLU
- RLU (Time 245.547 s): 168.248 RLU
- RLU (Time 293.547 s): 151.715 RLU
- RLU (Time 299.547 s): 145.558 RLU
- RLU (calcium trace, sheet TAS2R1, Time 305.547 s): 138.546 RLU
- RLU (calcium trace, sheet TAS2R1, Time 311.547 s): 132.623 RLU
- RLU (calcium trace, sheet TAS2R1, Time 317.547 s): 129.733 RLU
- RLU (calcium trace, sheet TAS2R1, Time 323.547 s): 134.84 RLU
- RLU (calcium trace, sheet TAS2R1, Time 329.547 s): 140.029 RLU
- RLU (calcium trace, sheet TAS2R1, Time 335.547 s): 144.9 RLU
- RLU (calcium trace, sheet TAS2R1, Time 341.547 s): 152.792 RLU
- RLU (calcium trace, sheet TAS2R1, Time 347.547 s): 132.414 RLU
- RLU (calcium trace, sheet TAS2R1, Time 353.547 s): 137.138 RLU
- RLU (calcium trace, sheet TAS2R1, Time 359.547 s): 131.392 RLU
- EC50 (calculated where receptor saturation was reached): 6.1 ± 0.6 µM
- Activation threshold concentration TAS2R1 (lowest concentration with significantly increased fluorescence vs empty vector (p < 0.01)): 3 µM and 3.00 µM
SMILES: C[C@H](CCC(=O)O)[C@H]1CC[C@H]2[C@@H]3CC[C@@H]4C[C@H](O)CC[C@]4(C)[C@H]3C[C@H](O)[C@]12C [Deoxycholic Acid, deoxycholic acid]
